From patent US9597297B2, “Combination of pilocarpin and methimazol for treating Charcot-Marietooth disease and related disorders” (PHARNEXT, priority 2008, dated 2017)

Legend:
[1] = Body weight of CMT rats during treatment; assay type: in vivo, rat; conditions: treated group comparatively with placebo group, data not shown
Experimental: The animals are weighted twice a week in order to adjust the doses to growing body weight. If the osmotic pump is chosen for the treatment administration, the doses of the drug are calculated on the basis of the estimated mean body weight of the animals expected for their age over the period of the pump duration (6 weeks). The pumps are re-implanted if necessary, with the appropriated anaesthesia protocol.
Body weights, overt signs (coat appearance, body posture, tremor) of the animals are monitored throughout the experiment. The rating scale is used for recording: 0=normal, 1=abnormal.

PMP22 protein = PMP22 protein expression analysis by flow cytometry (FACS) in primary rat Schwann cells; assay type: cell-based; conditions: 1 μM
Experimental: One day later, primary Schwann cells are stimulated by drugs during 24 hrs (3 wells/condition). The preparation of each compound is performed just prior to its addition to the cell culture medium. The following PCR conditions are used: Denaturation 5 min at 95° C. followed by 10 sec at 95° C., 40 sec at 60° C. and 10 sec at 72° C. and 1 min at 40° C. (Forty amplification cycles). The relative levels of PMP22 gene expression are measured following the Ct method comparing the quantity of products generated from the target gene PMP22 and the […] 8 hrs, 24 hrs and 48 hrs after drugs incubation, supernatants of primary rat Schwann cells are recovered, centrifuged and frozen. SC are detached with trypsin-EDTA. As soon as the majority of cells are in suspension, the trypsin is neutralised using DMEM with 10% FCS. Supernatants with cells are recovered and centrifuged. […] Forward Scatter (FSC) correlated with cell volume (size) and Side Scatter (SSC) depending on inner complexity of cells (granularity) are analysed. For expression of PMP22, analysis is performed within the total cells and percent of positive cells is calculated. Positive cells are cells with fluorescence intensity higher than the control with secondary antibody.

| Structure (SMILES) | entire body weight [1] | decrease of PMP22 protein level of expression (PMP22 protein; 24 hrs of incubation) [%] | change of PMP22 protein level of expression (PMP22 protein; 48 hrs of incubation, p<0.001) [%] |
| --- | --- | --- | --- |
| Cn1cc[nH]c1=S [methimazole, 1-methyl-3H-imidazole-2-thione] | rather diminished | – | – |
| CC[C@@H]1C(=O)OC[C@@H]1Cc1cncn1C [pilocarpine, (3S,4R)-3-ethyl-4-[(3-methylimidazol-4-yl)methyl]oxolan-2-one] | – | 38 | −18 |
